Assay results from patent EP1233943B1, “IONIZABLE INDOLINONE DERIVATIVES AND THEIR USE AS PTK LIGANDS” (Sugen, Inc., priority 1999, dated 2001).
Converted amounts (≈) assume the structure as drawn. Read-outs that look alike come from different tables or passages of the source.

How the values were obtained:
[1] = in vivo; settings: mouse, in vivo, ip, 75 mg/kg/day
Method: (§1) In most experiments, compound was administered daily.
(§2) Tumor growth was measured using venier calipers.

[2] = test system: A375 (human melanoma); test: in vivo; settings: 75 mg/kg/d IP in DMSO, dosed 3x/week; day 29; BALB/c nu/nu mice
Method: as §1, §2

[3] = Subcutaneous xenograft model in athymic mice, A431; type: in vivo, human; settings: mouse, in vivo, 100 mg/kg/day; 100 mg/kg/d IP daily in DMSO
Method: as §1, §2

[4] = test system: A431 (human epidermal); test: Subcutaneous xenograft model in athymic mice, A431; type: in vivo; settings: 100 mg/kg/d IP daily in DMSO; day 24; BALB/c nu/nu mice
Method: as §1, §2

[5] = Oral bioavailability of formulations in beagle dogs; type: in vivo; settings: higher doses in fasted conditions
Method: The formulation described below enhance the oral bioaviability of COMPOUND IV in beagle dogs, a preclinical absorption model.
Both formulations contain 50 mg/gm of Pluronic F-68. The formulation at 50 mg/gm of COMPOUND IV contains 900 mgs of sesame oil and the one that contains 250 mg/gm of COMPOUND IV contains 700 mgs of sesame oil.
AUC refers to the area under the curve of the plasma concentration time curve and represents oral bioavilability (BA). Higher AUC indicates higher BA.

[6] = test system: SF767T (human glioma); settings: 75 mg/kg/d IP daily in DMSO; day 21; BALB/c nu/nu mice
Method: (§3) SF763T, SF767T, and SKOV3TP5 were derived by implanting the parental cells SC into BALB/c nu/nu mice.
(§4) For the SF763T and SF767T cell lines, two to five mL of appropriate medium was added to the slurry and the tumor pieces were further mechanically teased apart. […] Medium was changed every two to three days. After three to five passages, the antibiotic supplements were removed and the cells maintained in antibiotic-free medium.
as §1, §2

[7] = test system: SF763T (human glioma); settings: 75 mg/kg/d IP daily in DMSO; day 21; BALB/c nu/nu mice
Method: as §3, §4, §1, §2

[8] = test system: SKOV3TP5 (human ovarian); settings: 75 mg/kg/d IP daily in DMSO; day 25; BALB/c nu/nu mice
Method: as §3
For the SKOV3TP5 cells, fragments of resected tumors were injected SC into mice for in vivo passaging. This procedure was repeated five times before cells were returned to culture as described above.
as §1, §2

[9] = test system: C6 (rat glioma)
Method: (§5) C6 cells were cultured in Ham's F-10 supplemented with 5% FBS and 2mM L-glutamine. […] All cell cultures were maintained at 37°C in a humidified atmosphere of 5-10% CO2.
(§6) Tumor cell lines (0.6 - 10 x 10^6 cells/animal; n = 8-20 animals/group) were implanted SC in the hindflank region of 8-12 week old BALB/c nu/nu female mice.
(§7) Tumor growth was measured using venier calipers. Tumor volumes were calculated as the product of length x width x height. Statistical analysis was carried out using Student's t-test.
(§8) C6 cells were implanted SC into athymic mice on day zero. […] On Day 16, all Group 3 animals were humanely sacrificed due to tumor burden (mean tumor diameter approximately 1300 mm^3), and the growth of tumors in Groups 1 and 2 was monitored until the mean tumor burden of each group reached 1300 mm^3.
(§9) Beginning one day post-implantation, compound (200 mg/kg/day in solution in a Labrasol®-containing vehicle) was administered to mice PO. Tumor growth was measured using venier calipers and tumor volumes were calculated as the product of length x width x height.

[10] = in vivo; settings: mouse, in vivo, ip, 75 mg/kg/day; remark: listed apart in the source
Method: as §1, §2

[11] = test system: EpH4-VEGF1 (murine epithelial); test: in vivo; settings: 75 mg/kg/d IP daily in DMSO; day 18; BALB/c nu/nu mice
Method: as §1, §2

[12] = physchem
Method: The solution was filtered, appropriate dilutions made and the concentration of the compound in the supernatant was analyzed by a reverse phase HPLC method.

[13] = in vivo
Method: as §5, §6, §7, §8, §9

## Cc1[nH]c(C=C2C(=O)Nc3ccccc32)c(C)c1CCC(=O)O [Example 1, 3-[2,4-dimethyl-5-(2-oxo-1,2-dihydro-indol-3-ylidenemethyl)-1H-pyrrol-3-yl]-propionic acid]
[1]
  mortality: 0%
[2]
  % Inhibition @ (day): 56(29) %
[3]
  mortality: 12.5%
[4]
  % Inhibition @ (day): 84 (24) %
[5]
  bioavailability: low bioavailability
[6]
  % Inhibition @ (day): 46 (21) %
[7]
  % Inhibition @ (day): 48 (21) %
[8]
  % Inhibition @ (day): 9 (25) %
[9]; 100 mg/kg/d IP daily in DMSO, day 18, BALB/c nu/nu mice
  % Inhibition @ (day): 65 (18) %
[9]; IP 25 mg/kg Daily X 5, day 18
  % Inhibition (at day): 1(18) %
[9]; IP 50 mg/kg Daily X 5, day 18
  % Inhibition (at day): 68 (18) %
[9]; IP 50 mg/kg Daily, day 18
  % Inhibition (at day): 27 (18) %
[9]; IP 50 mg/kg Three times weekly, day 18
  % Inhibition (at day): 25 (18) %
[9]; IP 50 mg/kg Twice weekly, day 19
  % Inhibition (at day): 36 (19) %
[9]; IP 75 mg/kg Daily X 5, day 18
  % Inhibition (at day): 54 (18) %
[9]; IP 75 mg/kg Daily, day 18
  % Inhibition (at day): 53 (18) %
[9]; IP 75 mg/kg Three times weekly, day 18
  % Inhibition (at day): 29 (18) %
[9]; IP 75 mg/kg Twice weekly, day 19
  % Inhibition (at day): 26 (19) %
[9]; IP 75 mg/kg/day from Day 7, when measurable tumors were present
  efficacy on established tumors: efficacious
[9]; IP 100 mg/kg Daily X 5 followed by Once weekly, day 15
  % Inhibition (at day): 42(15) %
[9]; IP 100 mg/kg Daily, day 18
  % Inhibition (at day): 65 (18) %
[9]; IP 100 mg/kg Three times weekly, day 18
  % Inhibition (at day): 40 (18) %
[9]; IP 100 mg/kg Twice weekly, day 19
  % Inhibition (at day): 38 (19) %
[9]; IP 100 mg/kg twice weekly or three times weekly, statistically significant
  tumor growth inhibition: approximately 40%
[9]; IP 150 mg/kg Daily X 5 followed by once weekly, day 15
  % Inhibition (at day): 51 (15) %
[9]; PO 200 mg/kg/day in a Labrasol-containing vehicle, Day 18 post-implantation, compared to vehicle-treated animals
  tumor growth inhibited: 82%
[10]
  mortality: 0%
[11]
  % Inhibition @ (day): 34 (18) %
[12]; 2% polysorbate-80
  solubility: < 13 mg/mL
[12]; 30% peg 300 in buffer, pH 8.2, organic solvent or mixture
  solubility: 32 mg/mL (≈ 103 mM)
[13]; ip, 100 mg/kg/day
  mortality: 12.5%
[13]; po, 200 mg/kg/day
  mortality: 10%
